The source made the active and inactive calls. No rule for the calls is given here.
Target: N-formyl peptide receptor 2 (Homo sapiens) (UniProt P25090)
Assay: concentration-dependent FPRL1 ligand displacement – cell-based, FPR counter-screen, fluorescent ligand, dose response (AID 520)
Conditions: FPRL1-expressing cells, fluorescent ligand binding inhibition; for Ki: measured here: FPRL1 binding Ki

Sequence of N-formyl peptide receptor 2 (Homo sapiens) (P25090 whole entry, looked up): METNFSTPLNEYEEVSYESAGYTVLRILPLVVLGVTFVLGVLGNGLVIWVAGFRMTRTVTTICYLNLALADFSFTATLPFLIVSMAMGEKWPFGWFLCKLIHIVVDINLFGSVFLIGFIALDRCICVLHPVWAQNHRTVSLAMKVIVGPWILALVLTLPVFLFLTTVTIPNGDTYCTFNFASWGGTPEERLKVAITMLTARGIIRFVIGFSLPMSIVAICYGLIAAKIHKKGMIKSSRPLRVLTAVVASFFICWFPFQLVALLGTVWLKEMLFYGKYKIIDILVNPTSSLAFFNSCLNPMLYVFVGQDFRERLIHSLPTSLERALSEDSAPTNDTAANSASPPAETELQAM

Cc1cc(N2C(=O)C(=O)/C(=C(/O)c3ccc(F)cc3)C2c2cccc(Br)c2)no1 (stereo not drawn)
IC50: > 66.7 µM (inactive) | Ki: > 40.3 µM

O=C1CCCC(O)=C1C(C#Cc1ccccc1)C1=C(O)CCCC1=O
IC50: > 66.7 µM (inactive) | Ki: > 40.3 µM

CC1=C(C(=O)OC(C)C)[C@]2(C(=O)N(CC(N)=O)c3ccccc32)C(C#N)=C(N)O1
IC50: > 66.7 µM (inactive) | Ki: > 40.3 µM

O=C(Cn1c(=O)oc2ccccc21)N1CCN(c2ccccc2)CC1
Ki: > 40.3 µM

Nc1ccc(Nc2ccccc2N)cc1
Ki: 9.1 µM

C=CCOc1ccc(C2C(C(=O)c3ccco3)=C(O)C(=O)N2Cc2cccnc2)cc1 (stereo not drawn)
IC50: > 66.7 µM (inactive) | Ki: > 40.3 µM

Cc1csc(NC(=O)CCn2c(=O)oc3ccccc32)n1
Ki: > 40.3 µM

CCOC(=O)c1sc(=S)n2c1[nH]c(=O)c1ccc(C(=O)OC)cc12
Ki: > 40.3 µM

CCOC(=O)N1CCC(NC(=O)c2cc(C(=O)Nc3ccc(OC)c(OC)c3)ccc2CO)CC1
Ki: > 40.3 µM

COc1ccc(NC(=O)C(c2ccc(C)cc2)N(C)C(=O)c2cnccn2)cc1 (stereo not drawn)
Ki: > 40.3 µM

COc1cccc(/C(O)=C2/C(=O)C(=O)N(Cc3cccnc3)C2c2ccco2)c1 (stereo not drawn)
IC50: > 66.7 µM (inactive) | Ki: > 40.3 µM

Cc1nc2c(C)cccn2c1/C(O)=C1\C(=O)C(=O)N(CCN2CCOCC2)C1c1cccs1 (stereo not drawn)
IC50: > 66.7 µM (inactive) | Ki: > 40.3 µM

COC(=O)[C@H](C(C)C)n1c(C)c(C(C)=O)c(C(C)=O)c1C
Ki: > 40.3 µM

C[N+]1(C)[C@@H]2CC(OC(=O)[C@H](CO)c3ccccc3)C[C@H]1[C@@H]1O[C@@H]12 (stereo partly drawn)
Ki: > 40.3 µM

Cc1ccc(C2/C(=C(/O)c3ccc(Br)cc3)C(=O)C(=O)N2Cc2ccco2)o1 (stereo not drawn)
IC50: > 66.7 µM (inactive) | Ki: > 40.3 µM

O=C(Nc1nnc(-c2ccccc2Cl)o1)c1ccc(S(=O)(=O)N2CCCCCC2)cc1
Ki: > 40.3 µM

OCc1nc2ccccc2n1CC(O)Cn1ccc2ccccc21 (stereo not drawn)
Ki: > 40.3 µM

CCCCn1c(NC(=O)CC)c(C#N)c2nc3ccccc3nc21
Ki: > 40.3 µM

COC(=O)C1=[N+]([O-])OC(C(=O)OC)C1c1c[nH]c2ccccc12 (stereo not drawn)
Ki: > 40.3 µM

COC(=O)Cc1[nH]nc2c1C(C1C=CCCC1)C(C#N)=C(N)O2 (stereo not drawn)
IC50: > 66.7 µM (inactive) | Ki: > 40.3 µM

COc1ccc2ccccc2c1C1CC(=O)N2CN(C3CCCCC3)CSC2=C1C#N (stereo not drawn)
Ki: > 40.3 µM

Cc1ccc(C2/C(=C(/O)c3ccc(Cl)cc3)C(=O)C(=O)N2CC2CCCO2)o1 (stereo not drawn)
IC50: > 66.7 µM (inactive) | Ki: > 40.3 µM

O=C(C1=C(O)C(=O)N(Cc2ccco2)C1c1ccccc1)c1cccs1 (stereo not drawn)
IC50: > 66.7 µM (inactive) | Ki: > 40.3 µM

O=C(C1=C(O)C(=O)N(Cc2ccccc2)C1c1ccncc1)c1ccco1 (stereo not drawn)
IC50: > 66.7 µM (inactive) | Ki: > 40.3 µM

CNc1nn(-c2cccc(Cl)c2)nc1N
Ki: 11 µM

CCOC(=O)Cc1cc(=O)n2[nH]c(C)c(-c3ccc(OC)cc3)c2n1
Ki: > 40.3 µM

CCc1nnc(NC(=O)CSc2nnc(-c3cc4ccccc4cc3O)n2CC)s1
Ki: > 40.3 µM

CN(C)c1nc(N(C)C)nc(N(C)C)n1
Ki: > 40.3 µM

COc1ccccc1Oc1c(C)oc2cc(OC(=O)c3ccco3)ccc2c1=O
Ki: > 40.3 µM

COc1ccc(-c2cc(C(F)(F)F)nc(N3CCN(c4ccccc4)CC3)n2)cc1OC
Ki: > 40.3 µM

O=C(O)CCCNc1cc(N2CCC3(CC2)OCCO3)c2noc3c2c1C(=O)c1ccccc1-3
Ki: 6.6 µM

CCn1cc(C(=O)NC2CCC(C)CC2)c(=O)c2cc(S(=O)(=O)N3CCCCC3)ccc21 (stereo not drawn)
Ki: > 40.3 µM

COc1ccc2cnn(-c3ccccc3)c(=O)c2c1OC
Ki: > 40.3 µM

CCCCn1c(NC(C)=O)c(C#N)c2nc3ccccc3nc21
Ki: > 40.3 µM

COc1cccc(C2C(C(=O)c3cc4ccccc4o3)=C(O)C(=O)N2c2cc(C)on2)c1OC (stereo not drawn)
IC50: > 66.7 µM (inactive) | Ki: > 40.3 µM

COc1cccc2c1C(=O)c1c(O)c3c(c(O)c1C2=O)C[C@@](O)(C(C)=O)C[C@@H]3O[C@H]1C[C@H](N)[C@H](O)[C@H](C)O1
Ki: 15.2 µM

Cc1[nH]n2c(=O)c3c(nc2c1-c1ccc(Cl)cc1)CCC3
Ki: > 40.3 µM

CC(C)(C)CC(=O)Nc1ccc(Nc2ccccc2)cc1
Ki: > 40.3 µM

Cc1ccc(C(=O)C2=C(O)C(=O)N(CCCn3ccnc3)C2c2ccc(OC(C)C)cc2)o1 (stereo not drawn)
IC50: > 66.7 µM (inactive) | Ki: > 40.3 µM

CCC(CC)C(=O)Nc1c2cnn(-c3ccccc3)c2nc(=O)n1-c1ccccc1
Ki: > 40.3 µM

COc1ccc(-c2cn3cccnc3n2)cc1NC(=O)C1CCCC1
Ki: > 40.3 µM

CCc1cc2c(=O)c(-c3nc4ccccc4n3C)c(COCC(=O)O)oc2cc1OC(=O)C(C)(C)C
Ki: > 40.3 µM

COCc1cc(C2C(C(=O)c3ccco3)=C(O)C(=O)N2CCOCCO)ccc1O (stereo not drawn)
IC50: > 66.7 µM (inactive) | Ki: > 40.3 µM

CCOC(=O)Cc1cc(=O)n2[nH]c(C)c(-c3ccc(Cl)cc3)c2n1
Ki: > 40.3 µM

Cc1nc2c(C#N)c[nH]n2c(=O)c1Cc1ccccc1
Ki: > 40.3 µM

COc1cccc2cc(C(=O)C3=C(O)C(=O)N(Cc4ccco4)C3c3cccnc3)oc12 (stereo not drawn)
IC50: > 66.7 µM (inactive) | Ki: > 40.3 µM

CCOc1ccc(/C(O)=C2/C(=O)C(=O)N(CC3CCCO3)C2c2ccco2)cc1 (stereo not drawn)
IC50: > 66.7 µM (inactive) | Ki: > 40.3 µM

CCN(C(=O)Cc1c(C(=O)O)[nH]c2ccccc12)c1cc(OC)ccc1OC
Ki: > 40.3 µM

Cc1ccc(NC(=O)c2oc3ccc(S(=O)(=O)N4CCOCC4)cc3c2C)cc1C
Ki: > 40.3 µM

COc1ccccc1C1/C(=C(/O)c2ccccc2)C(=O)C(=O)N1CCO (stereo not drawn)
IC50: > 66.7 µM (inactive) | Ki: > 40.3 µM

COc1ccc(-c2nnc(Nc3nc4c(OC)cccc4s3)o2)c(OC)c1
Ki: > 40.3 µM

CCOc1cccc(/C(O)=C2/C(=O)C(=O)N(CCOC)C2c2ccc(C)o2)c1 (stereo not drawn)
IC50: > 66.7 µM (inactive) | Ki: > 40.3 µM

COc1cc(-n2nc(C)c3c2OC(N)=C(C#N)C3c2ccccc2)c(Cl)c(Br)c1O (stereo not drawn)
IC50: > 66.7 µM (inactive) | Ki: > 40.3 µM

COc1ccc(OC)c(C2C(C(=O)c3cc4ccccc4o3)=C(O)C(=O)N2c2cc(C)on2)c1 (stereo not drawn)
IC50: > 66.7 µM (inactive) | Ki: > 40.3 µM

COc1ccc(C)cc1NC(=O)C1CCCCC1C(=O)O (stereo not drawn)
Ki: > 40.3 µM

COc1ccccc1-n1c(CNC(=O)c2ccco2)nnc1SCC(=O)Nc1ccc(F)cc1
Ki: > 40.3 µM

CCC(Sc1nc2c(c(=O)[nH]1)CCC2)C(=O)Nc1cccc(OC)c1 (stereo not drawn)
Ki: > 40.3 µM

N[C@@H](Cc1ccc(O)c(I)c1)C(=O)O
Ki: > 40.3 µM

COCCCN1C(=O)C(O)=C(C(=O)c2ccco2)C1c1ccc(Br)cc1 (stereo not drawn)
IC50: > 66.7 µM (inactive) | Ki: > 40.3 µM

O=C(C1=C(O)C(=O)N(Cc2ccccc2)C1c1ccco1)c1ccco1 (stereo not drawn)
IC50: > 66.7 µM (inactive) | Ki: > 40.3 µM

O=C1C(C23CC4CC(CC(C4)C2)C3)C(=O)N(c2ccccc2)N1c1ccccc1
IC50: > 66.7 µM (inactive) | Ki: > 40.3 µM

CCOc1ccc(/C(O)=C2/C(=O)C(=O)N(c3nc(C)c(C)s3)C2c2ccco2)cc1 (stereo not drawn)
IC50: > 66.7 µM (inactive) | Ki: > 40.3 µM

Nc1ccc(Nc2ccccc2)cc1
Ki: > 40.3 µM

Cc1cc2oc(C(=O)NC3CCS(=O)(=O)C3)c(C)c2cc1C (stereo not drawn)
Ki: > 40.3 µM

Cc1[nH]n2c(=O)c3c(nc2c1-c1ccccc1)CCC3
Ki: > 40.3 µM

COC(=O)c1[nH]c(C)c(/C(O)=C2\C(=O)C(=O)N(CCN3CCOCC3)C2c2cccs2)c1C (stereo not drawn)
IC50: > 66.7 µM (inactive) | Ki: > 40.3 µM

COc1cc(C2C(C(=O)c3ccc(C)o3)=C(O)C(=O)N2CCc2ccccc2)ccc1O (stereo not drawn)
IC50: > 66.7 µM (inactive) | Ki: > 40.3 µM

O=C(C1=C(O)C(=O)N(CCOCCO)C1c1cccs1)c1cccs1 (stereo not drawn)
IC50: > 66.7 µM (inactive) | Ki: > 40.3 µM

CCOc1ccc(C2C(C(=O)c3cccs3)=C(O)C(=O)N2CCCn2ccnc2)cc1 (stereo not drawn)
IC50: > 66.7 µM (inactive) | Ki: > 40.3 µM

CCOc1ccc(C2C(C(=O)c3ccco3)=C(O)C(=O)N2Cc2cccnc2)cc1 (stereo not drawn)
IC50: > 66.7 µM (inactive) | Ki: > 40.3 µM

COc1ccc(C2C(C(=O)c3cccs3)=C(O)C(=O)N2c2nnc(C)s2)cc1OC (stereo not drawn)
IC50: > 66.7 µM (inactive) | Ki: > 40.3 µM

CCC(NC(=O)Nc1cc(OC)c(OC)c(OC)c1)(C(F)(F)F)C(F)(F)F
Ki: > 40.3 µM

Cc1cc(NC(=O)CSc2nnc(Cn3c(=O)sc4ccccc43)n2-c2ccccc2C)no1
Ki: > 40.3 µM

O=C(O)C1CC=CCC1C(=O)N1CCN(c2nc(-c3ccccc3)c3ccccc3n2)CC1 (stereo not drawn)
Ki: > 40.3 µM

C=CCn1c(NC(=O)c2ccccc2)c(C#N)c2nc3ccccc3nc21
Ki: > 40.3 µM

COc1ccc(OC)c(C2/C(=C(/O)c3ccccc3)C(=O)C(=O)N2Cc2ccco2)c1 (stereo not drawn)
IC50: > 66.7 µM (inactive) | Ki: > 40.3 µM

CC(C)CN(CC(C)C)C(=O)CS(=O)(=O)Cc1ccccc1
Ki: > 40.3 µM

COC(=O)c1[nH]c(C)c(/C(O)=C2\C(=O)C(=O)N(CCCN3CCOCC3)C2c2ccccn2)c1C (stereo not drawn)
IC50: > 66.7 µM (inactive) | Ki: > 40.3 µM

Clc1ccc(C2CC(c3cccs3)n3ncnc3N2)cc1Cl (stereo not drawn)
Ki: > 40.3 µM

COc1ccc(-c2cc(C(F)(F)F)nc(N3CCN(Cc4ccccc4)CC3)n2)cc1OC
Ki: 7.3 µM

O=C(NCC1CCCO1)c1ccc(NC(=O)C2CCCCC2C(=O)O)cc1 (stereo not drawn)
Ki: > 40.3 µM

Cc1cccc(C2CC(c3ccc(Cl)cc3)Nc3nc(N)nn32)c1 (stereo not drawn)
Ki: > 40.3 µM

COc1ccccc1C1/C(=C(/O)c2ccccc2)C(=O)C(=O)N1CC(C)C (stereo not drawn)
IC50: > 66.7 µM (inactive) | Ki: > 40.3 µM

O=C(C1=C(O)C(=O)N(Cc2ccccc2)C1c1cccnc1)c1ccco1 (stereo not drawn)
IC50: > 66.7 µM (inactive) | Ki: > 40.3 µM

C=CCOc1ccc(C2C(C(=O)c3cccs3)=C(O)C(=O)N2c2nnc(C)s2)cc1 (stereo not drawn)
IC50: > 66.7 µM (inactive) | Ki: > 40.3 µM

COc1ccc2nc(Nc3nc(C)c(C(C)=O)s3)sc2c1
Ki: > 40.3 µM

Clc1ccc(Cc2nn3c(-c4ccncc4)nnc3s2)cc1
Ki: > 40.3 µM

COc1ccc(CC(=O)Nc2ccc(-c3nnc(-c4ccc(C)cc4)o3)cc2)cc1
Ki: > 40.3 µM

COc1cc(C2C(C(=O)c3ccco3)=C(O)C(=O)N2c2cc(C)on2)cc(Br)c1O (stereo not drawn)
IC50: > 66.7 µM (inactive) | Ki: > 40.3 µM

O=S(=O)(Nc1cccc2ncccc12)c1cccs1
Ki: > 40.3 µM

CCc1ccccc1NC(=O)C(C#N)Cc1cccnc1 (stereo not drawn)
Ki: > 40.3 µM

CCCC(=O)Nc1cc(-c2cn3cccnc3n2)ccc1OC
Ki: 13.8 µM

Reference: PubChem BioAssay AID520 (NMMLSC, 2006)
